Tested on: P12-Ichikawa
Experiment: cell viability relative to DMSO control; higher = less cytotoxic
Conditions: 48 h
Method in brief: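 NOMO1 or SEM cells were plated at 500 cells/well and P12-Ichikawa cells at 1000 cells/well in 1536-well plates (5 μl), after each leukemia line had been adapted for at least four passages in each medium. Pin dosing delivered library compounds in DMSO at 11 threefold concentrations, 47 μM to 0.79 nM. CellTiter-Glo One luminescence was read after 48 h at 37°C. Viability is reported as a per-plate percentage of DMSO wells, with cell-free wells as background.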

[1] = HPLM + 10% dialyzed FBS, 0.000781 µM
[2] = HPLM + 10% dialyzed FBS, 0.00234 µM
[3] = HPLM + 10% dialyzed FBS, 0.00702 µM
[4] = HPLM + 10% dialyzed FBS, 0.0211 µM
[5] = HPLM + 10% dialyzed FBS, 0.0632 µM
[6] = HPLM + 10% dialyzed FBS, 0.19 µM
[7] = HPLM + 10% dialyzed FBS, 0.569 µM
[8] = HPLM + 10% dialyzed FBS, 1.71 µM
[9] = HPLM + 10% dialyzed FBS, 5.12 µM
[10] = HPLM + 10% dialyzed FBS, 15.4 µM
[11] = HPLM + 10% dialyzed FBS, 46.1 µM
[12] = RPMI 5 mM glucose + 10% FBS, 0.000781 µM
[13] = RPMI 5 mM glucose + 10% FBS, 0.00234 µM
[14] = RPMI 5 mM glucose + 10% FBS, 0.00702 µM
[15] = RPMI 5 mM glucose + 10% FBS, 0.0211 µM
[16] = RPMI 5 mM glucose + 10% FBS, 0.0632 µM
[17] = RPMI 5 mM glucose + 10% FBS, 0.19 µM
[18] = RPMI 5 mM glucose + 10% FBS, 0.569 µM
[19] = RPMI 5 mM glucose + 10% FBS, 1.71 µM
[20] = RPMI 5 mM glucose + 10% FBS, 5.12 µM
[21] = RPMI 5 mM glucose + 10% FBS, 15.4 µM
[22] = RPMI 5 mM glucose + 10% FBS, 46.1 µM
[23] = RPMI 5 mM glucose + 10% dialyzed FBS, 0.000781 µM
[24] = RPMI 5 mM glucose + 10% dialyzed FBS, 0.00234 µM
[25] = RPMI 5 mM glucose + 10% dialyzed FBS, 0.00702 µM
[26] = RPMI 5 mM glucose + 10% dialyzed FBS, 0.0211 µM
[27] = RPMI 5 mM glucose + 10% dialyzed FBS, 0.0632 µM
[28] = RPMI 5 mM glucose + 10% dialyzed FBS, 0.19 µM
[29] = RPMI 5 mM glucose + 10% dialyzed FBS, 0.569 µM
[30] = RPMI 5 mM glucose + 10% dialyzed FBS, 1.71 µM
[31] = RPMI 5 mM glucose + 10% dialyzed FBS, 5.12 µM
[32] = RPMI 5 mM glucose + 10% dialyzed FBS, 15.4 µM
[33] = RPMI 5 mM glucose + 10% dialyzed FBS, 46.1 µM

SMILES | cell viability [1] [%] | cell viability [2] [%] | cell viability [3] [%] | cell viability [4] [%] | cell viability [5] [%] | cell viability [6] [%] | cell viability [7] [%] | cell viability [8] [%] | cell viability [9] [%] | cell viability [10] [%] | cell viability [11] [%] | cell viability [12] [%] | cell viability [13] [%] | cell viability [14] [%] | cell viability [15] [%] | cell viability [16] [%] | cell viability [17] [%] | cell viability [18] [%] | cell viability [19] [%] | cell viability [20] [%] | cell viability [21] [%] | cell viability [22] [%] | cell viability [23] [%] | cell viability [24] [%] | cell viability [25] [%] | cell viability [26] [%] | cell viability [27] [%] | cell viability [28] [%] | cell viability [29] [%] | cell viability [30] [%] | cell viability [31] [%] | cell viability [32] [%] | cell viability [33] [%]
O=C(O)[C@@H](c1ccc(OCc2ccc3ccccc3n2)cc1)C1CCCC1 | 113 | 114 | 106 | 109 | 109 | 102 | 107 | 99.6 | 106 | 102 | 98.7 | 116 | 116 | 110 | 110 | 102 | 106 | 107 | 107 | 92.8 | 98 | 96.9 | 108 | 112 | 112 | 113 | 108 | 109 | 106 | 101 | 95.8 | 102 | 100
CC(=O)Oc1cc2c(s1)CCN(C(C(=O)C1CC1)c1ccccc1F)C2.Cl (stereo unspecified) | 95 | 102 | 100 | 107 | 107 | 103 | 107 | 112 | 101 | 106 | 65.1 | 100 | 106 | 101 | 111 | 115 | 124 | 116 | 133 | 101 | 94.8 | 53.5 | 95.9 | 105 | 102 | 104 | 103 | 112 | 104 | 101 | 99.7 | 80.3 | 50.3
COc1cccc2c(NCc3ccccc3)nc(-n3c(N)nc4ccccc43)nc12 | 99 | 103 | 108 | 107 | 108 | 112 | 109 | 111 | 94.3 | 58.3 | 8.25 | 94.8 | 108 | 95 | 115 | 111 | 103 | 111 | 110 | 114 | 63.7 | 6.11 | 106 | 100 | 111 | 99.6 | 112 | 114 | 119 | 111 | 102 | 76.6 | 10.1
COc1nccc(-c2c(-c3ccc(F)cc3)ncn2C2CCC(O)CC2)n1 (stereo unspecified) | 121 | 117 | 112 | 108 | 118 | 115 | 103 | 105 | 101 | 98.3 | 75.1 | 113 | 120 | 122 | 116 | 111 | 110 | 117 | 112 | 110 | 106 | 86.3 | 126 | 121 | 114 | 117 | 120 | 123 | 118 | 115 | 115 | 115 | 41.2
C[C@H]1C[C@H]2[C@@H]3CCC4=CC(=O)C=C[C@]4(C)[C@H]3C(=O)C[C@]2(C)[C@@]1(O)C(=O)CO | 91.4 | 96.5 | 93.1 | 95.6 | 88 | 92.7 | 87.6 | 94.8 | 88.3 | 101 | 93 | 91.3 | 98.1 | 94 | 90.7 | 94.7 | 99.7 | 94.9 | 97.2 | 100 | 95.7 | 85.3 | 83.7 | 91.7 | 80.1 | 89.7 | 84 | 85.6 | 82.7 | 83.7 | 82.2 | 85.6 | 70.5
CCCC1=N[N](C)C2=C1\N=C(/NC2=O)C3=CC(=CC=C3OCC)[S+]([O-])(=O)N4CCN(C)CC4 | 82.3 | 92.6 | 89.5 | 88.6 | 90.7 | 89.5 | 88.2 | 80.4 | 86.5 | 84 | 50.7 | 81.4 | 87.3 | 89.2 | 80.9 | 77.5 | 87.6 | 84.1 | 82.1 | 85.2 | 82.4 | 20.7 | 81.4 | 84.5 | 80.8 | 86.6 | 82.5 | 86.8 | 79.7 | 85.1 | 77.8 | 79.2 | 33.1
O=C1CCC[C@@H]2[C@H]3CCC[N+]4([O-])CCC[C@@H](CN12)[C@@H]34 (stereo partly specified) | 88.3 | 89.2 | 100 | 102 | 98.8 | 92.9 | 105 | 102 | 89.5 | 98.6 | 97.7 | 83.5 | 80.8 | 89.7 | 95.1 | 95.5 | 97.2 | 87.7 | 94.7 | 87.3 | 99.9 | 88 | 78.2 | 84.9 | 94.1 | 94 | 93 | 83.5 | 81.4 | 90.8 | 90 | 89.6 | 89.2

Source: the supplement of paper PMC11451515
